{"source": "patent US12280018B2", "about": "“Antiseptic compositions” (RHT LIMITED, priority 2020, dated 2025)", "key": {"[1]": {"test_system": "PolySeed® BOD Seed Inoculum (blend of broad spectrum bacteria)", "experiment": "Durability test (bacteria spiked regularly on treated agar plate, swab viable count)", "assay_type": "cell-based", "conditions": "bacteria solution spiked every 60 minutes", "description": "To evaluate the durability of bacteria inhibition of the exemplary compositions, durability test by regularly spiking a fixed amount of bacteria into the sample is performed and the procedures are incorporated herein by reference.\n• Group A: Agar plate with 0.5 mL distilled water; • Group B: Agar plate with 0.5 mL 75% isopropyl alcohol (IPA); • Group C: Agar plate with 0.5 g of tested exemplary composition.\nBacteria strain used: PolySeed® BOD Seed Inoculum Capsules (1 caspsule dissolved into 500 mL Distilled Water) (Interlab), which contains a blend of broad spectrum bacteria designed specifically as a seed inoculum for the Biochemical Oxygen Demand (BOD 5) test as conducted in accordance to Standard Methods of the Examination of Water and Wastewater. PolySeed® is an EPA approved BOD 5 seed inoculum that has been used to seed both municipal and industrial wastes for almost 20 years.\nAgar: Trypticase Soy Agar (TSA)\nIncubation condition: 48 hours at 30±1° C.\nThe above three sample group agar plates are used as the sample matrices of different initial situation for spiking 0.5 ml bacteria solution for every 60 minutes, i.e.: there was an on-going process of spiking bacteria at time 0, 60, 120, 180, 240, 300 minutes;\nA swab testing is carried out every 30 minutes from matrix samples of each group to test for the viable count of bacteria at the time interval.\n• AM: 0.5 ml bacteria solution is added at T0-10 min; • Sample A1: To swab from AM at T0; Sample A2: To swab from AM at T1; • AM: 0.5 ml bacteria solution is added at T2-10 min; • Sample A3: To swab from AM at T2; Sample A4: To swab from AM at T3; • AM: 0.5 ml bacteria solution is added at T4-10 min; and so forth. Table 2 summarized the testing schedule for durability test."}, "[2]": {"test_system": "PolySeed® BOD Seed Inoculum", "experiment": "Volatility test (duration of bacteria inhibition on treated agar plate)", "assay_type": "cell-based", "description": "To study the duration on ability of bacteria inhibition of an exemplary composition, a volatility test is performed.\n• Group A: Agar plate with 0.5 mL distilled water; • Group B: Agar plate with 0.5 mL 75% isopropyl alcohol (IPA); • Group C: Agar plate with 0.5 g of tested exemplary composition. Bacteria strain used: PolySeed® BOD Seed Inoculum Capsules (1 capsule dissolved into 500 mL Distilled Water) (Interlab) Agar: Trypticase Soy Agar (TSA) Incubation condition: 48 hours at 30±1° C. Testing Procedure 0.5 mL bacteria solution is add into the agar plate groups A, B and C at the time interval of Tx. as defined in Table 1.3.\nAfter T10, bacteria solution is spiked to all the agar plates except agar blank.\nSwab test is carried out to test for the viable count of bacteria at the time interval Tx."}}}
{"smiles": "CC(C)O", "note": "[75% IPA, isopropyl alcohol]", "values": [{"measurement": "CFU/plate", "setting": "[1]; T0 (0 min)", "result": 8, "unit": "CFU/plate"}, {"measurement": "CFU/plate", "setting": "[1]; T1 (30 min)", "result": 28, "unit": "CFU/plate"}, {"measurement": "CFU/plate", "setting": "[1]; T2 (60 min)", "result": 53, "unit": "CFU/plate"}, {"measurement": "CFU/plate", "setting": "[1]; T3 (90 min)", "result": 89, "unit": "CFU/plate"}, {"measurement": "CFU/plate", "setting": "[1]; T4 (120 min)", "result": 254, "unit": "CFU/plate"}, {"measurement": "CFU/plate", "setting": "[1]; T5 (150 min)", "result": 346, "unit": "CFU/plate"}, {"measurement": "CFU/plate", "setting": "[1]; T6 (180 min)", "result": "Uncountable (the bacterial colonies are too numerous to be counted in the agar plate, e.g., more than 335 colonies per plate)"}, {"measurement": "CFU/plate", "setting": "[1]; T7 (210 min)", "result": "Uncountable (the bacterial colonies are too numerous to be counted in the agar plate, e.g., more than 335 colonies per plate)"}, {"measurement": "CFU/plate", "setting": "[1]; T8 (240 min)", "result": "Uncountable (the bacterial colonies are too numerous to be counted in the agar plate, e.g., more than 335 colonies per plate)"}, {"measurement": "CFU/plate", "setting": "[1]; T9 (270 min)", "result": "Uncountable (the bacterial colonies are too numerous to be counted in the agar plate, e.g., more than 335 colonies per plate)"}, {"measurement": "CFU/plate", "setting": "[1]; T10 (300 min)", "result": "Uncountable (the bacterial colonies are too numerous to be counted in the agar plate, e.g., more than 335 colonies per plate)"}, {"measurement": "CFU/plate", "setting": "[2]; T0 (0 min)", "result": 54, "unit": "CFU/plate"}, {"measurement": "CFU/plate", "setting": "[2]; T1 (30 min)", "result": 62, "unit": "CFU/plate"}, {"measurement": "CFU/plate", "setting": "[2]; T2 (60 min)", "result": 50, "unit": "CFU/plate"}, {"measurement": "CFU/plate", "setting": "[2]; T3 (90 min)", "result": 45, "unit": "CFU/plate"}, {"measurement": "CFU/plate", "setting": "[2]; T4 (120 min)", "result": 49, "unit": "CFU/plate"}, {"measurement": "CFU/plate", "setting": "[2]; T5 (150 min)", "result": 55, "unit": "CFU/plate"}, {"measurement": "CFU/plate", "setting": "[2]; T6 (180 min)", "result": 43, "unit": "CFU/plate"}, {"measurement": "CFU/plate", "setting": "[2]; T7 (210 min)", "result": 37, "unit": "CFU/plate"}, {"measurement": "CFU/plate", "setting": "[2]; T8 (240 min)", "result": 44, "unit": "CFU/plate"}, {"measurement": "CFU/plate", "setting": "[2]; T9 (270 min)", "result": 49, "unit": "CFU/plate"}, {"measurement": "CFU/plate", "setting": "[2]; T10 (300 min)", "result": 0, "unit": "CFU/plate"}]}
